Reference: patent US7691601B2, “Medium for detecting and/or identifying of microorganisms” (priority 2003, dated 2010)

Legend:
Candida albicans = experiment: Coloration of Candida albicans colonies on detection medium; type: cell-based; set-up: key: 0=absence of coloration; 0.5=trace coloration; 1=weak coloration; 2=strong coloration; conditions: Table 4, 25 mg/l, stool B
Protocol: (§1) Preparation of the detection medium: A volume of 250 ml of detection medium is prepared from a powdered medium having the following composition:
(§2) Melting is carried out at 100° C., and the medium is autoclaved at 121° C. for 15 minutes. The additives are then added to the medium: Magenta C8 (500 mg/l; B-7102, BIOSYNTH, Staad, Switzerland); X-glucoside (75 mg/l; B-7250, BIOSYNTH, Staad, Switzerland); cefsulodine (10 mg/l; C 4786, Sigma, St Quentin Fallavier, France), and also the esterase inhibitor: • ? O,O-diethyl p-nitrophenyl phosphate: 5 mg/l • ? O,O-dimethyl p-nitrophenyl phosphate: 25 mg/l or • ? O,O-di-(2-chloroethyl)-O-(3-chloro-4-methylcoumarin-7-yl)phosphate: 75 mg/l
(§3) The various selection media thus obtained are then poured into Petri dishes.
(§4) Seeding of yeast of the Candida genus: 10 μl of stools are deposited onto a Petri dish, and this stool suspension is mixed or not mixed with 10 μl of a suspension of Candida and isolated as 3 dials on a Petri dish. Various stools and various strains of Candida genus originating from the applicant's collection are used according to this protocol. The Petri dishes are incubated at 37° C. for 24 hours.
(§5) The appearance of a coloration at the point of deposit of the stool and in the Candida colonies is read according to a semi-quantitative scale: • 0=absence of coloration • 0.5=trace coloration • 1=weak coloration • 2=strong coloration.

[1] = Colonies column read for stool without added strain, Salmonella detection medium; set-up: key: 0=no coloration; 0.5=trace of coloration; 1=weak coloration; 2=strong coloration; conditions: Table 2, no strain
Protocol: as §1
(§6) Melting is carried out at 100° C., and the medium is autoclaved at 121° C. for 15 minutes. The additives are then added to the medium: Magenta C8 (500 mg/l; B-7102, BIOSYNTH, Staad, Switzerland); X-glucoside (75 mg/l; B-7250, BIOSYNTH, Staad, Switzerland); cefsulodine (10 mg/l; C 4786, Sigma, St Quentin Fallavier, France) and various concentrations of the inhibitor O,O-diethyl p-nitrophenyl phosphate (Paraoxon® ethyl; CAS No. 311-45-5; 36186, Riedel-de Haën, St Quentin Fallavier, France; 0; 1; 5 or 10 mg/l).
(§7) The various detection media thus obtained are then poured into Petri dishes.
(§8) Seeding of Salmonella bacteria: 10 μl of stools are deposited onto a Petri dish, this stool suspension is mixed or not mixed with 10 μl of a suspension of Salmonella (0.5 McF) and isolated as 3 dials on a Petri dish. Various […] and various Salmonella strains originating from the applicant's collection are used according to this protocol. The Petri dishes are incubated at 37° C. for 24 hours. The appearance of a coloration at the point of deposit of the stool (“deposit” column) and at the Salmonella colony (“colony” column) is read according to a semi-quantitative scale: • 0=no coloration • 0.5=trace of coloration • 1=weak coloration • 2=strong coloration The results obtained are given in Table 1.
as §6, with “O,O-dimethyl” for “O,O-diethyl”, “methyl;” for “ethyl;”, “950-35-6;” for “311-45-5; 36186,”, “5, 10, 25” for “0; 1; 5 or 10”
(§9) Seeding of Salmonella bacteria: The Petri dishes are inoculated, incubated and read as in Example 1.
(§10) Preparation of the detection medium: 250 ml of the medium of Example 1, in which the O,O-diethyl p-nitrophenyl phosphate is replaced with various concentrations of O,O-di-(2-chloroethyl)-O-(3-chloro-4-methylcoumarin-7-yl)phosphate (Haloxon®; CAS No. 321-55-1; R276995, Sigma, St Quentin Fallavier, France; 0; 1; 10; 100 or 1000 mg/l), are prepared according to the method of Example 1.
as §3

Salmonella Typhi = experiment: Coloration of Salmonella Typhi colonies on detection medium; type: cell-based; set-up: key: 0=no coloration; 0.5=trace of coloration; 1=weak coloration; 2=strong coloration
Protocol: as §1, §6, §7, §8
as §6, with “O,O-dimethyl” for “O,O-diethyl”, “methyl;” for “ethyl;”, “950-35-6;” for “311-45-5; 36186,”, “5, 10, 25” for “0; 1; 5 or 10”
as §9, §10, §3

[2] = test system: free esterases in a stool sample; experiment: Coloration at the point of deposit of the stool on Salmonella detection medium (Magenta C8); type: biochemical; set-up: key to Deposit coloration: 0=no coloration; 0.5=trace of coloration; 1=weak coloration; 2=strong coloration; conditions: for Deposit coloration: Table 2
Protocol: as §1, §6, §7, §8
as §6, with “O,O-dimethyl” for “O,O-diethyl”, “methyl;” for “ethyl;”, “950-35-6;” for “311-45-5; 36186,”, “5, 10, 25” for “0; 1; 5 or 10”
as §9, §10, §3

[3] = Colonies column read for stool without added strain, Candida detection medium; set-up: key: 0=absence of coloration; 0.5=trace coloration; 1=weak coloration; 2=strong coloration; conditions: Table 4, 25 mg/l, no strain
Protocol: as §1, §2, §3, §4, §5

Salmonella Enteritidis = experiment: Coloration of Salmonella Enteritidis colonies on detection medium; type: cell-based; set-up: key: 0=no coloration; 0.5=trace of coloration; 1=weak coloration; 2=strong coloration
Protocol: as §1, §6, §7, §8
as §6, with “O,O-dimethyl” for “O,O-diethyl”, “methyl;” for “ethyl;”, “950-35-6;” for “311-45-5; 36186,”, “5, 10, 25” for “0; 1; 5 or 10”
as §9, §10, §3

Candida krusei = experiment: Coloration of Candida krusei colonies on detection medium; type: cell-based; set-up: key: 0=absence of coloration; 0.5=trace coloration; 1=weak coloration; 2=strong coloration; conditions: Table 4, 25 mg/l
Protocol: as §1, §2, §3, §4, §5

With `COP(=O)(OC)Oc1ccc([N+](=O)[O-])cc1` [O,O-dimethyl p-nitrophenyl phosphate] the Colonies coloration (Candida albicans) was 0.5, the Colonies coloration ([1]; 5 mg/l, stool C) was 0 and the Colonies coloration ([1]; 5 mg/l, stool D) was 0. The Colonies coloration ([1]; 10 mg/l, stool C) was 0, the Colonies coloration ([1]; 10 mg/l, stool D) was 0 and the Colonies coloration ([1]; 25 mg/l, stool C) was 0. It also gave a Colonies coloration ([1]; 25 mg/l, stool D) of 0, a Colonies coloration (Salmonella Typhi; Table 2, 5 mg/l, stool C) of 0.5 and a Colonies coloration (Salmonella Typhi; Table 2, 5 mg/l, stool D) of 0.5. For the same compound, the Colonies coloration (Salmonella Typhi; Table 2, 10 mg/l, stool C) was 1, the Colonies coloration (Salmonella Typhi; Table 2, 10 mg/l, stool D) was 0.5 and the Colonies coloration (Salmonella Typhi; Table 2, 25 mg/l, stool C) was 0.5. The Colonies coloration (Salmonella Typhi; Table 2, 25 mg/l, stool D) was 0.5, the Deposit coloration ([2]; 5 mg/l, stool C, Salmonella Enteritidis) was 1 and the Deposit coloration ([2]; 5 mg/l, stool C, Salmonella Typhi) was 1. For the same compound, the Deposit coloration ([2]; 5 mg/l, stool C, no strain) was 1, the Deposit coloration ([2]; 5 mg/l, stool D, Salmonella Enteritidis) was 1 and the Deposit coloration ([2]; 5 mg/l, stool D, Salmonella Typhi) was 1. It also gave a Deposit coloration ([2]; 5 mg/l, stool D, no strain) of 1, a Deposit coloration ([2]; 10 mg/l, stool C, Salmonella Enteritidis) of 0.5 and a Deposit coloration ([2]; 10 mg/l, stool C, Salmonella Typhi) of 0.5. It also gave a Deposit coloration ([2]; 10 mg/l, stool C, no strain) of 0.5, a Deposit coloration ([2]; 10 mg/l, stool D, Salmonella Enteritidis) of 1 and a Deposit coloration ([2]; 10 mg/l, stool D, Salmonella Typhi) of 1. It also gave a Deposit coloration ([2]; 10 mg/l, stool D, no strain) of 1, a Deposit coloration ([2]; 25 mg/l, stool C, Salmonella Enteritidis) of 0 and a Deposit coloration ([2]; 25 mg/l, stool C, Salmonella Typhi) of 0. It also gave a Deposit coloration ([2]; 25 mg/l, stool C, no strain) of 0, a Deposit coloration ([2]; 25 mg/l, stool D, Salmonella Enteritidis) of 0 and a Deposit coloration ([2]; 25 mg/l, stool D, Salmonella Typhi) of 0. For the same compound, the Deposit coloration ([2]; 25 mg/l, stool D, no strain) was 0, the “Aspecific enzymatic reactions due to the presence of free enzymes” value ([2]; stools, Salmonella detection medium, summary in words) was “greatly inhibited” and the Colonies coloration ([3]; stool A) was 0. For the same compound, the Colonies coloration ([3]; stool B) was 0, the Colonies coloration (Salmonella Enteritidis; Table 2, 5 mg/l, stool C) was 2 and the Colonies coloration (Salmonella Enteritidis; Table 2, 5 mg/l, stool D) was 2. The Colonies coloration (Salmonella Enteritidis; Table 2, 10 mg/l, stool C) was 2, the Colonies coloration (Salmonella Enteritidis; Table 2, 10 mg/l, stool D) was 2 and the Colonies coloration (Salmonella Enteritidis; Table 2, 25 mg/l, stool C) was 2. It also gave a Colonies coloration (Salmonella Enteritidis; Table 2, 25 mg/l, stool D) of 2, a Colonies coloration (Candida krusei; stool A) of 0.5 and a Colonies coloration (Candida krusei; stool B) of 0.5.
